# Measurements as given in PubChem BioAssay AID1745844 (Carcinogenic Potency Database (CPDB), 2022).
# Active and inactive are the calls of the source. No rule for the calls is given here.
# Tested on: rodent lifetime carcinogenesis bioassay, tumor incidence TD50
# Experiment: carcinogenic potency in animals, long-term in vivo studies, CPDB compilation (AID 1745844)
smiles,measurement,setting,value
O=C(Nc1cccc2c(=O)cc(-c3nn[nH]n3)oc12)c1ccc(OCCCCc2ccccc2)cc1,carcinogen call,"rat, strain Jcl:SD, females, by gavage, site: liver, lesion: one or several types, types not named, dosed 52 weeks, study length 52 weeks",negative (inactive)
same,carcinogen call,"rat, strain Jcl:SD, females, by gavage, site: liver, lesion: one or several types, types not named, dosed 52 weeks, study length 56 weeks",negative (inactive)
same,carcinogen call,"rat, strain Jcl:SD, males, by gavage, site: liver, lesion: neoplastic nodule, dosed 52 weeks, study length 56 weeks",negative (inactive)
same,carcinogen call,"rat, strain Jcl:SD, males, by gavage, site: liver, lesion: one or several types, types not named, dosed 52 weeks, study length 52 weeks",negative (inactive)
O=CNNc1nc(-c2ccc([N+](=O)[O-])o2)cs1,TD50,"hamster, strain Syrian Golden, males, in feed, site: forestomach, lesion: squamous-cell papilloma, dosed 48 weeks, study length 70 weeks",25.1 mg/kg/day
same,TD50,"hamster, strain Syrian Golden, males, in feed, site: urinary bladder, lesion: transitional-cell carcinoma, dosed 48 weeks, study length 70 weeks",16.6 mg/kg/day
same,TD50,"mouse, strain Swiss, females, in feed, site: all sites, lesion: leukemia, dosed 33 weeks, study length 52 weeks",25.6 mg/kg/day
same,TD50,"mouse, strain Swiss, females, in feed, site: all sites, lesion: lymphocytic leukemia, dosed 33 weeks, study length 52 weeks",11.4 mg/kg/day
same,TD50,"mouse, strain Swiss, females, in feed, site: any site (literature study), lesion: several types, types named in the paper, dosed 33 weeks, study length 52 weeks",2.42 mg/kg/day
same,TD50,"mouse, strain Swiss, females, in feed, site: forestomach, lesion: papilloma, dosed 33 weeks, study length 52 weeks",13.8 mg/kg/day
same,TD50,"mouse, strain Swiss, females, in feed, site: forestomach, lesion: squamous-cell papilloma, dosed 33 weeks, study length 52 weeks",8.85 mg/kg/day
same,TD50,"mouse, strain Swiss, females, in feed, site: lung, lesion: alveolar-cell carcinoma, dosed 33 weeks, study length 52 weeks",67.1 mg/kg/day
same,TD50,"rat, strain Buffalo, females, in feed, site: kidney, lesion: several types, types named in the paper, dosed 46 weeks, study length 64 weeks",17.5 mg/kg/day
same,TD50,"rat, strain Buffalo, females, in feed, site: kidney, lesion: tubular adenoma, dosed 46 weeks, study length 64 weeks",98.6 mg/kg/day
same,TD50,"rat, strain Buffalo, females, in feed, site: kidney, lesion: tubular-cell adenocarcinoma, dosed 46 weeks, study length 64 weeks",44.1 mg/kg/day
same,TD50,"rat, strain Buffalo, females, in feed, site: liver, lesion: cystadenoma, dosed 46 weeks, study length 64 weeks",39.1 mg/kg/day
same,TD50,"rat, strain Buffalo, females, in feed, site: mammary gland, lesion: adenocarcinoma, dosed 46 weeks, study length 64 weeks",13.1 mg/kg/day
same,TD50,"rat, strain Buffalo, females, in feed, site: mammary gland, lesion: adenofibroma, dosed 46 weeks, study length 64 weeks",80.5 mg/kg/day
same,TD50,"rat, strain Buffalo, females, in feed, site: mammary gland, lesion: several types, types named in the paper, dosed 46 weeks, study length 64 weeks",5.54 mg/kg/day
same,TD50,"rat, strain Holtzman albino (Sprague-Dawley derived), females, in feed, site: cecum, lesion: adenocarcinoma, dosed 44 weeks, study length 60 weeks",210 mg/kg/day
same,TD50,"rat, strain Holtzman albino (Sprague-Dawley derived), females, in feed, site: ear canal, lesion: squamous-cell carcinoma, dosed 44 weeks, study length 60 weeks",100 mg/kg/day
same,TD50,"rat, strain Holtzman albino (Sprague-Dawley derived), females, in feed, site: kidney, lesion: adenoma, dosed 44 weeks, study length 60 weeks",17.6 mg/kg/day
same,TD50,"rat, strain Holtzman albino (Sprague-Dawley derived), females, in feed, site: kidney, lesion: carcinoma, dosed 44 weeks, study length 60 weeks",78.5 mg/kg/day
same,TD50,"rat, strain Holtzman albino (Sprague-Dawley derived), females, in feed, site: liver, lesion: hemangioendothelial sarcoma, dosed 44 weeks, study length 60 weeks",428 mg/kg/day (inactive)
same,TD50,"rat, strain Holtzman albino (Sprague-Dawley derived), females, in feed, site: mammary tissue, wider than the gland, lesion: one or several types, types not named, dosed 44 weeks, study length 60 weeks",5.5 mg/kg/day
same,TD50,"rat, strain Holtzman albino (Sprague-Dawley derived), females, in feed, site: small intestine, lesion: adenocarcinoma, dosed 44 weeks, study length 60 weeks",78.5 mg/kg/day
same,TD50,"rat, strain Sprague-Dawley, females, in feed, site: all sites, lesion: lymphoblastic lymphoma, dosed 45 weeks, study length 75 weeks",184 mg/kg/day
same,TD50,"rat, strain Sprague-Dawley, females, in feed, site: any site (literature study), lesion: several types, types named in the paper, dosed 45 weeks, study length 75 weeks",3.79 mg/kg/day
same,TD50,"rat, strain Sprague-Dawley, females, in feed, site: forestomach, lesion: squamous-cell papilloma, dosed 45 weeks, study length 75 weeks",65.4 mg/kg/day
same,TD50,"rat, strain Sprague-Dawley, females, in feed, site: kidney/pelvis, lesion: transitional-cell carcinoma, dosed 45 weeks, study length 75 weeks",137 mg/kg/day
same,TD50,"rat, strain Sprague-Dawley, females, in feed, site: kidney, lesion: renal-cell carcinoma, dosed 45 weeks, study length 75 weeks",65.4 mg/kg/day
same,TD50,"rat, strain Sprague-Dawley, females, in feed, site: kidney, lesion: several types, types named in the paper, dosed 46 weeks, study length 64 weeks",9.96 mg/kg/day
same,TD50,"rat, strain Sprague-Dawley, females, in feed, site: kidney, lesion: tubular adenoma, dosed 46 weeks, study length 64 weeks",50.7 mg/kg/day
same,TD50,"rat, strain Sprague-Dawley, females, in feed, site: kidney, lesion: tubular-cell adenocarcinoma, dosed 46 weeks, study length 64 weeks",33.9 mg/kg/day
same,TD50,"rat, strain Sprague-Dawley, females, in feed, site: liver, lesion: cystadenoma, dosed 46 weeks, study length 64 weeks",43.9 mg/kg/day
same,carcinogen call,"rat, strain Sprague-Dawley, females, in feed, site: liver, lesion: one or several types, types not named, dosed 45 weeks, study length 75 weeks",negative (inactive)
same,TD50,"rat, strain Sprague-Dawley, females, in feed, site: liver, lesion: several types, types named in the paper, dosed 46 weeks, study length 64 weeks",30.1 mg/kg/day
same,TD50,"rat, strain Sprague-Dawley, females, in feed, site: mammary gland, lesion: adenocarcinoma, dosed 45 weeks, study length 75 weeks",3.54 mg/kg/day
same,TD50,"rat, strain Sprague-Dawley, females, in feed, site: mammary gland, lesion: adenocarcinoma, dosed 46 weeks, study length 64 weeks",19.5 mg/kg/day
same,TD50,"rat, strain Sprague-Dawley, females, in feed, site: mammary gland, lesion: adenofibroma, dosed 46 weeks, study length 64 weeks",52.8 mg/kg/day
same,TD50,"rat, strain Sprague-Dawley, females, in feed, site: mammary gland, lesion: several types, types named in the paper, dosed 46 weeks, study length 64 weeks",5.85 mg/kg/day
same,TD50,"rat, strain Sprague-Dawley, males, in feed, site: kidney/pelvis, lesion: transitional-cell carcinoma, dosed 46 weeks, study length 64 weeks",69.9 mg/kg/day
same,TD50,"rat, strain Sprague-Dawley, males, in feed, site: kidney, lesion: several types, types named in the paper, dosed 46 weeks, study length 64 weeks",5.82 mg/kg/day
same,TD50,"rat, strain Sprague-Dawley, males, in feed, site: kidney, lesion: tubular adenoma, dosed 46 weeks, study length 64 weeks",47.6 mg/kg/day
same,TD50,"rat, strain Sprague-Dawley, males, in feed, site: kidney, lesion: tubular-cell adenocarcinoma, dosed 46 weeks, study length 64 weeks",19.3 mg/kg/day
same,TD50,"rat, strain Sprague-Dawley, males, in feed, site: liver, lesion: cystadenoma, dosed 46 weeks, study length 64 weeks",35.3 mg/kg/day
same,TD50,"rat, strain Sprague-Dawley, males, in feed, site: mammary gland, lesion: adenofibroma, dosed 46 weeks, study length 64 weeks",46.2 mg/kg/day
Nc1ccc(N)c(Cl)c1,TD50,"mouse, strain B6C3F1, females, in feed, site: any site (literature study), lesion: several types, types named in the paper, dosed 96 weeks, study length 104 weeks",1430 mg/kg/day (inactive)
same,TD50,"mouse, strain B6C3F1, females, in feed, site: liver, lesion: hepatocellular adenoma + hepatocellular carcinoma + neoplastic nodule, dosed 96 weeks, study length 104 weeks",1590 mg/kg/day
same,TD50,"mouse, strain B6C3F1, females, in feed, site: lung, lesion: alveolar/bronchiolar adenoma + alveolar/bronchiolar carcinoma, dosed 96 weeks, study length 104 weeks",3330 mg/kg/day
same,TD50,"mouse, strain B6C3F1, males, in feed, site: any site (literature study), lesion: several types, types named in the paper, dosed 95 weeks, study length 104 weeks",4380 mg/kg/day (inactive)
same,TD50,"mouse, strain B6C3F1, males, in feed, site: liver, lesion: hepatocellular adenoma + hepatocellular carcinoma + neoplastic nodule, dosed 95 weeks, study length 104 weeks",1310 mg/kg/day
same,carcinogen call,"rat, strain Fischer 344, females, in feed, site: any site (literature study), lesion: several types, types named in the paper, dosed 105 weeks, study length 105 weeks",negative (inactive)
same,TD50,"rat, strain Fischer 344, females, in feed, site: liver, lesion: hepatocellular adenoma + hepatocellular carcinoma + neoplastic nodule, dosed 105 weeks, study length 105 weeks",3600 mg/kg/day
same,TD50,"rat, strain Fischer 344, males, in feed, site: any site (literature study), lesion: several types, types named in the paper, dosed 105 weeks, study length 105 weeks",244 mg/kg/day (inactive)
same,TD50,"rat, strain Fischer 344, males, in feed, site: liver, lesion: hepatocellular adenoma + hepatocellular carcinoma + neoplastic nodule, dosed 105 weeks, study length 105 weeks",665 mg/kg/day
Oc1ccc(Cl)cc1Cl,carcinogen call,"mouse, strain B6C3F1, females, in feed, site: any site (literature study), lesion: several types, types named in the paper, dosed 103 weeks, study length 104 weeks",negative (inactive)
same,TD50,"mouse, strain B6C3F1, males, in feed, site: forestomach, lesion: squamous-cell carcinoma + squamous-cell papilloma, dosed 103 weeks, study length 104 weeks",12400 mg/kg/day (inactive)
same,TD50,"mouse, strain B6C3F1, males, in feed, site: liver, lesion: hepatocellular adenoma + hepatocellular carcinoma + neoplastic nodule, dosed 103 weeks, study length 104 weeks",458000 mg/kg/day
same,TD50,"mouse, strain B6C3F1, males, in feed, site: lung, lesion: alveolar/bronchiolar adenoma + alveolar/bronchiolar carcinoma, dosed 103 weeks, study length 104 weeks",13300 mg/kg/day
same,carcinogen call,"rat, strain Fischer 344, females, in feed, site: any site (literature study), lesion: several types, types named in the paper, dosed 103 weeks, study length 104 weeks",negative (inactive)
same,carcinogen call,"rat, strain Fischer 344, males, in feed, site: any site (literature study), lesion: several types, types named in the paper, dosed 103 weeks, study length 104 weeks",negative (inactive)
CC(C)NCC(O)c1ccc2ccccc2c1 (stereo not drawn),carcinogen call,"mouse, strain CF-1, females, in feed, site: liver, lesion: one or several types, types not named, dosed 78 weeks, study length 78 weeks",negative (inactive)
same,TD50,"mouse, strain CF-1, females, in feed, site: lung, lesion: adenoma, dosed 78 weeks, study length 78 weeks",1300 mg/kg/day (inactive)
same,TD50,"mouse, strain CF-1, males, in feed, site: liver, lesion: adenoma, dosed 78 weeks, study length 78 weeks",1820 mg/kg/day (inactive)
same,carcinogen call,"mouse, strain CF-1, males, in feed, site: liver, lesion: carcinoma, dosed 78 weeks, study length 78 weeks",negative (inactive)
same,TD50,"mouse, strain CF-1, males, in feed, site: lung, lesion: adenoma, dosed 78 weeks, study length 78 weeks",931 mg/kg/day (inactive)
same,TD50,"mouse, strain Not specified, females, in feed, site: thymus gland, lesion: one or several types, types not named, dosed 64 weeks, study length 64 weeks",408 mg/kg/day
same,TD50,"mouse, strain Not specified, males, in feed, site: thymus gland, lesion: one or several types, types not named, dosed 64 weeks, study length 64 weeks",1930 mg/kg/day
OCN(CO)c1nc(N(CO)CO)nc(N(CO)CO)n1,TD50,"rat, strain Sprague-Dawley, females, in feed, site: any site (literature study), lesion: several types, types named in the paper, dosed 44 weeks, study length 66 weeks",6.82 mg/kg/day
same,TD50,"rat, strain Sprague-Dawley, females, in feed, site: kidney/pelvis, lesion: transitional-cell carcinoma, dosed 44 weeks, study length 66 weeks",33.6 mg/kg/day
same,TD50,"rat, strain Sprague-Dawley, females, in feed, site: mammary gland, lesion: adenocarcinoma, dosed 44 weeks, study length 66 weeks",10.2 mg/kg/day
same,TD50,"rat, strain Sprague-Dawley, females, in feed, site: mammary gland, lesion: several types, types named in the paper, dosed 44 weeks, study length 66 weeks",11.9 mg/kg/day
